Experimental data from US9205064B2, “Methods for the diagnosis of oncological disorders using epimetabolic shifters, multidimensional intracellular molecules, or environmental influencers” (Berg LLC, priority 2009, dated 2015).

Assays:
[1] = tested on: ATP Citrate Lyase (ACL); assay: Western blot of ATP citrate lyase levels in normal and cancer cells; assay type: cell-based, human
Protocol: The whole cell pellets were resuspended one at a time in 1 mL of C7 buffer and transferred to labeled 15 mL tubes. The samples were then sonicated in the cold room on ice using 6 sonic pulses with the setting at #14. The samples were spun for a short time to 2500 g after sonication and the samples transferred to 2 ml tubes. The pH was verified of each sample (pH should be 9.0) using the foam remaining in the […] sample tubes.
After transfer each of the blots was placed in between 2 Whatman Filter papers and dried for 15-20 minutes. After drying the blots were labeled with the date, the type of samples and either blot 1 or blot 2 using a HB pencil. The molecular weight markers were outlined with the pencil and with single lines for the blue and a doublet for the colored markers. The blots were activated with methanol for 5 seconds, washed with water for 5 minutes, and TBST for 15 minutes. The blots were blocked for 1 hour with 5% blocking reagent in TBS-T at room temperature and then washed 3 times with TBS-T (1×-15′; 2×5′ each). Blot 1 was probed with the primary antibody for IDH1 (Cell Signaling #3997) in TBST with 5% BSA (at 1:1000 dilutions) and blot 2 with the rabbit polyclonal antibody for ATP Citrate Lyase in 5% BSA (Cell Signaling #4332) at 1:1000 dilution by incubation overnight at 4 deg C. with shaking. After the overnight incubation with primary antibodies, the blots were washed 3 times with TBS-T (1×-15′; 2×5′ each) and probed with the secondary antibody (antirabbit; 1:10,000 dilution) for 1 h on the orbital tilting shaker at room temperature. After 1 h of incubation with secondary antibodies, the blots were washed 3 times with TBS-T (1×-15′; 2×5′ each) and then incubated with ECF reagent for 5 mins and then each blot scanned with 5100 Fuji Laser scanner at 25 uM resolution, 16 bit, green laser, at 400V and at 500 V.
The samples were processed and run on a 4-12% Bis-Tris Novex NuPAGE gel as described above. The gels were run, transferred and stained essentially as described above.
The Isocitrate dehydrogenase blot was stripped by incubating for 30 minutes with methanol, followed by two 10 minute washes with TBS-T, then 30 minutes of incubation with stripping buffer at 50 deg C., and followed by two washes with 100 ml or more of TBS-T for 30′ each. The blot was scanned in laser scanner to check for complete stripping. The blot was activated with methanol for 5 seconds, washed with water for 5 minutes, and TBST for 15 minutes. The blot was blocked for 1 hour with 5% blocking reagent in TBS-T at room temperature and then washed 3 times with TBS-T (1×-15′; 2×5′ each). This was then probed with the rabbit polyclonal antibody for ATP Citrate Lyase in 5% BSA (Cell Signaling #4332) at 1:1000 dilution overnight at 4 deg C. with shaking. After the overnight incubation with primary antibody for ATP Citrate Lyase, the membrane was washed 3 times with TBS-T (1×-15′; 2×5′ each) and probed with the secondary antibody (antirabbit; 1:10,000 dilution) for 1 h on the orbital tilting shaker at room temperature. After 1 h of incubation with secondary antibodies, the blot was washed 3 times with TBS-T (1×-15′; 2×5′ each) and then incubated with ECF reagent for 5 minutes and then each blot scanned with 5100 Fuji Laser scanner at 25 uM resolution, 16 bit, green laser, at 400V and at 500 V.
In this experiment (western blot experiment 3), and in all of the experiments described below in this Example (i.e., western blot experiments 4 through 9), the cells were additionally treated with either 5 mM glucose (“5G”) or 22 mM glucose (“22G”). The samples derived from the cells were processed and run on a 4-12% Bis-Tris Novex NuPAGE gel as described above. The gels were run, transferred and stained essentially as described above.
The levels of IDH1, ATP citrate lyase and actin levels were determined by probing the blots with primary antibodies for IDH1, ATP citrate lyase and actin, essentially as described above.

[2] = rats, oral; cited from earlier work

For `COC1=C(OC)C(=O)C(C/C=C(\C)CC/C=C(\C)CC/C=C(\C)CC/C=C(\C)CC/C=C(\C)CC/C=C(\C)CC/C=C(\C)CC/C=C(\C)CC/C=C(\C)CCC=C(C)C)=C(C)C1=O` [Q10, Coenzyme Q10], the “ATP Citrate Lysase ~kd band Normalized Intensity (HASMC vs. HepG2)” value ([1]; HASMC, 5g48-50) was 23341, the “ATP Citrate Lysase ~kd band Normalized Intensity (HASMC vs. PACA2)” value ([1]; HASMC, 5g48-50) was 12056 and the “ATP Citrate Lysase ~kd band Normalized Intensity (HASMC vs. HepG2)” value ([1]; HASMC, 5g48-100) was 25544. The “ATP Citrate Lysase ~kd band Normalized Intensity (HASMC vs. PACA2)” value ([1]; HASMC, 5g48-100) was 15265, the “ATP Citrate Lysase ~kd band Normalized Intensity (HASMC vs. HepG2)” value ([1]; HASMC, 22G48-50) was 21439 and the “ATP Citrate Lysase ~kd band Normalized Intensity (HASMC vs. PACA2)” value ([1]; HASMC, 22G48-50) was 15857. The “ATP Citrate Lysase ~kd band Normalized Intensity (HASMC vs. HepG2)” value ([1]; HASMC, 22G48-100) was 19491, the “ATP Citrate Lysase ~kd band Normalized Intensity (HASMC vs. PACA2)” value ([1]; HASMC, 22G48-100) was 13892 and the “ATP Citrate Lysase ~kd band Normalized Intensity (HASMC vs. HepG2)” value ([1]; HepG2, 5g48-50) was 24106. The “ATP Citrate Lysase ~kd band Normalized Intensity (HASMC vs. HepG2)” value ([1]; HepG2, 5g48-100) was 22463, the “ATP Citrate Lysase ~kd band Normalized Intensity (HASMC vs. HepG2)” value ([1]; HepG2, 22G48-50) was 31235 and the “ATP Citrate Lysase ~kd band Normalized Intensity (HASMC vs. HepG2)” value ([1]; HepG2, 22G48-100) was 50588. The “ATP Citrate Lysase ~kd band Normalized Intensity (HASMC vs. PACA2)” value ([1]; PACA2, 5g48-50) was 8027, the “ATP Citrate Lysase ~kd band Normalized Intensity (HASMC vs. PACA2)” value ([1]; PACA2, 5g48-100) was 4942 and the “ATP Citrate Lysase ~kd band Normalized Intensity (HASMC vs. PACA2)” value ([1]; PACA2, 22G48-50) was 9537. The “ATP Citrate Lysase ~kd band Normalized Intensity (HASMC vs. PACA2)” value ([1]; PACA2, 22G48-100) was 14901 and the “fraction of orally-administered CoQ10 absorbed” value [2] was 2-3%.
